Experiments:
velvetleaf = assay: Test C pre-/postemergence test; assay type: in vivo, Abutilon theophrasti
From the text: (§1) Seeds of plant species selected from blackgrass (Alopecurus myosuroides), downy brome (Bromus tectorum), green foxtail (Setaria viridis), Italian ryegrass (Lolium multiflorum), wheat (Triticum aestivum), wild oat (Avena fatua), catchweed bedstraw (Galium aparine), Russian thistle (Salsola kali), […] (Cynodon dactylon), Surinam grass (Brachiaria decumbens), cocklebur (Xanthium strumarium), corn (Zea mays), crabgrass (Digitaria sanguinalis), woolly cupgrass (Eriochloa villosa), giant foxtail (Setaria faberii), Goosegrass (Eleusin indica), johnsongrass (Sorghum halepense), kochia (Kochia scoparia), lambsquarters (Chenopodium album), morningglory (Ipomoea coccinea), eastern black nightshade (Solanum ptycanthum), yellow nutsedge (Cyperus esculentus), pigweed (Amaranthus retroflexus), common ragweed (Ambrosia elation), soybean (Glycine max), common (oilseed) sunflower (Helianthus annuus), and velvetleaf (Abutilon theophrasti) were planted and treated preemergence with test chemicals formulated in a non-phytotoxic solvent mixture which included a surfactant. At the same time, plants selected from these crop and weed species and also winter barley (Hordeum vulgare), canarygrass (Phalaris minor), and chickweed (Stellaria media) were treated with postemergence applications of some of the test chemicals formulated in the same manner. Plants ranged in height from 2 to 18 cm (1- to 4-leaf stage) for postemergence treatments. […] At time of treatment, test pots were flooded to 3 cm above the soil surface, treated by application of test compounds directly to the paddy water, and then maintained at that water depth for the duration of the test. […] A dash (-) response means no test result.

kochia = assay: Test C pre-/postemergence test; assay type: in vivo, Kochia scoparia
From the text: as §1

barnyardgrass = assay: Test A pre-/postemergence greenhouse test; assay type: in vivo, Echinochloa crus-galli; settings: for Barnyardgrass plant response rating: 0 to 100 scale; for Plant response rating, Barnyardgrass: 0 to 100 scale where 0 is no effect and 100 is complete control
Method in brief: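 Seeds sown in a loam soil–sand blend got a preemergence directed soil spray of compound in a non-phytotoxic solvent mixture containing surfactant. Postemergence sprays of the same formulation went at the same time onto plants 2–10 cm tall at the one- to two-leaf stage. Injury was scored visually against untreated controls after about ten days in the greenhouse.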

cocklebur = assay: Test C pre-/postemergence test; assay type: in vivo, Xanthium strumarium
From the text: as §1

[1] = 62 g ai/ha, Preemergence, scale 0 to 100
[2] = Preemergence, 31 g ai/ha, scale 0 to 100 (0 no effect, 100 complete control)
[3] = Postemergence, 125 g ai/ha, 0 is no effect, 100 is complete control
[4] = Postemergence, 500 g ai/ha, 0 is no effect, 100 is complete control
[5] = Preemergence, 125 g ai/ha, 0 no effect, 100 complete control
[6] = preemergence, 125 g ai/ha, scale 0 (no effect) to 100 (complete control)
[7] = 125 g ai/ha, preemergence, scale 0 (no effect) to 100 (complete control)
[8] = preemergence, 250 g ai/ha, scale 0 (no effect) to 100 (complete control)
[9] = Preemergence, 500 g ai/ha, 0 no effect, 100 complete control
[10] = 62 g ai/ha, preemergence, scale 0 (no effect) to 100 (complete control)
[11] = 31 g ai/ha, Preemergence, scale 0 to 100
[12] = Postemergence, 125 g ai/ha, scale 0 to 100, 0 no effect, 100 complete control
[13] = Postemergence, 250 g ai/ha, scale 0 to 100, 0 no effect, 100 complete control
[14] = Postemergence, 62 g ai/ha, scale 0 to 100, 0 no effect, 100 complete control

Row | Structure (SMILES) | Velvetleaf plant response rating (velvetleaf; [1]) | Plant response rating, Velvetleaf (velvetleaf; [2]) | Kochia plant response rating (kochia; [1]) | Barnyardgrass plant response rating (barnyardgrass; [3]) | Barnyardgrass plant response rating (barnyardgrass; [4]) | Barnyardgrass plant response rating (barnyardgrass; [5]) | Plant response rating, Barnyardgrass (barnyardgrass; Preemergence, 500 g ai/ha) | Cocklebur plant response rating (cocklebur; [1]) | Plant response rating, Cocklebur (cocklebur; [2]) | Cocklebur plant response rating (cocklebur; [6]) | Velvetleaf plant response rating (velvetleaf; [7]) | Velvetleaf plant response rating (velvetleaf; [8]) | Kochia plant response rating (kochia; [7]) | Plant response rating, Kochia (kochia; [2]) | Kochia plant response rating (kochia; [8]) | Plant response rating, Barnyardgrass (barnyardgrass; Postemergence, 125 g ai/ha) | Cocklebur plant response rating (cocklebur; [7]) | Cocklebur plant response rating (cocklebur; [8]) | also measured
1 | CC(c1c(C(F)(F)F)nn(C)c1OC(F)F)S(=O)(=O)c1cc(C(C)(C)C)cc[n+]1[O-] (racemic) [Compound 26] | 80 | 30 | 0 | 0 | 0 | 60 | 90 | 0 | 0 | 0 | – | – | – | – | – | – | – | – | Plant response rating (0 to 100), Cocklebur (cocklebur; Preemergence, 250 g ai/ha): 50
2 | CC(C)c1cc[n+]([O-])c([S+]([O-])Cc2c(C(F)(F)F)nn(C)c2OC(F)F)c1 (stereo not drawn) [Compound 109] | 80 | 10 | 90 | – | 90 | 70 | – | 0 | 0 | – | 98 | 100 | 100 | 80 | 100 | 80 | 0 | 60 | Barnyardgrass plant response rating (barnyardgrass; [9]): 100
3 | Cn1nc(C(F)(F)F)c(C(Cl)S(=O)(=O)c2cccc[n+]2[O-])c1Cl (stereo not drawn) [Compound 12] | – | – | – | 50 | 60 | 90 | 90 | – | – | 0 | – | – | – | – | – | – | – | – | Velvetleaf plant response rating (velvetleaf; [10]): 0; Plant response rating (0 to 100), Velvetleaf (velvetleaf; Preemergence, 250 g ai/ha): 0; Velvetleaf plant response rating (velvetleaf; [6]): 0; Kochia plant response rating (kochia; [11]): 0; Kochia plant response rating (kochia; [10]): 0; Plant response rating (0 to 100), Kochia (kochia; Preemergence, 250 g ai/ha): 80; Cocklebur plant response rating (cocklebur; [11]): 0; Cocklebur plant response rating (cocklebur; [10]): 0; Plant response rating (0 to 100), Cocklebur (cocklebur; Preemergence, 250 g ai/ha): 0
4 | C#CCOc1c(CS(=O)(=O)c2cccc[n+]2[O-])c(C(F)(F)F)nn1C [Compound 103] | 55 | 0 | 0 | – | 90 | 90 | – | 0 | 0 | – | 80 | 100 | 100 | – | 100 | 80 | 0 | 30 | Barnyardgrass plant response rating (barnyardgrass; [9]): 100
5 | Cc1cc[n+]([O-])c(S(=O)(=O)Cc2c(C(F)(F)F)nn(C)c2OC(C)C(F)(F)F)c1 (stereo not drawn) [Compound 96] | 30 | 0 | 70 | – | 90 | 90 | 100 | 0 | 0 | – | 40 | 90 | 100 | 0 | 100 | 60 | 10 | 40 | –
6 | Cn1nc(C(F)(F)F)c(C[S+]([O-])c2ccc(Br)c[n+]2[O-])c1OC(F)F (racemic) [Compound 16] | – | – | – | 90 | 100 | 90 | 100 | – | – | 0 | – | – | – | – | – | – | – | – | Velvetleaf plant response rating (velvetleaf; [10]): 100; Plant response rating (0 to 100), Velvetleaf (velvetleaf; Preemergence, 250 g ai/ha): 100; Velvetleaf plant response rating (velvetleaf; [6]): 100; Kochia plant response rating (kochia; [11]): 20; Kochia plant response rating (kochia; [10]): 100; Plant response rating (0 to 100), Kochia (kochia; Preemergence, 250 g ai/ha): 100; Kochia plant response rating (kochia; [6]): 100; Cocklebur plant response rating (cocklebur; [11]): 0; Cocklebur plant response rating (cocklebur; [10]): 0; Plant response rating (0 to 100), Cocklebur (cocklebur; Preemergence, 250 g ai/ha): 0
7 | Cn1nc(C(F)(F)F)c(CS(=O)(=O)c2cccc[n+]2[O-])c1OCC(F)F [Compound 81] | 45 | 0 | 100 | – | 80 | 90 | 100 | 0 | 0 | – | 70 | 85 | 100 | 40 | 100 | 60 | 50 | 60 | –
8 | Cn1nc(C(F)(F)C(F)(F)F)c(C[S+]([O-])c2ccc(Cl)c[n+]2[O-])c1OCC(F)(F)F (stereo not drawn) [Compound 92] | 50 | 50 | 100 | – | 90 | 60 | 90 | 0 | 0 | – | 100 | 100 | 100 | 50 | 100 | 70 | 0 | 55 | –
9 | CC(c1c(C(F)(F)F)nn(C)c1Cl)S(=O)(=O)c1ccc(Cl)c[n+]1[O-] (racemic) [Compound 40] | – | – | – | 80 | 90 | 70 | 100 | – | – | – | – | – | – | – | – | – | – | – | Plant response rating (0 to 100), Velvetleaf (velvetleaf; Postemergence, 31 g ai/ha): 0; Plant response rating (0 to 100), Velvetleaf (velvetleaf; Postemergence, 62 g ai/ha): 0; Plant response rating, Velvetleaf (velvetleaf; [12]): 0; Plant response rating, Velvetleaf (velvetleaf; [13]): 0; Plant response rating (0 to 100), Kochia (kochia; Postemergence, 31 g ai/ha): 0; Plant response rating, Kochia (kochia; [14]): 0; Plant response rating, Kochia (kochia; [12]): 0; Plant response rating, Kochia (kochia; [13]): 0; Plant response rating (0 to 100), Cocklebur (cocklebur; Postemergence, 31 g ai/ha): 0; Plant response rating, Cocklebur (cocklebur; [14]): 0; Plant response rating, Cocklebur (cocklebur; [12]): 0; Plant response rating, Cocklebur (cocklebur; [13]): 0
10 | Cn1nc(C(F)(F)F)c(C[S+]([O-])c2cccc[n+]2[O-])c1OCC(F)F (stereo not drawn) [Compound 75] | 100 | 100 | 100 | – | 80 | 80 | 100 | 0 | 0 | – | 100 | 100 | 100 | 100 | 100 | 60 | 0 | 10 | –
11 | Cn1nc(C(F)(F)F)c(C[S+]([O-])c2cc(C(C)(C)C)cc[n+]2[O-])c1OC(F)F (racemic) [Compound 24] | 100 | 55 | 5 | 30 | 50 | 60 | 100 | 0 | 0 | 0 | – | – | – | 0 | – | – | – | – | –

Reference: patent US20100298141A1, “SUBSTITUTED PYRIDINE N-OXIDE HERBICIDES” (E. I. DU PONT DE NEMOURS AND COMPANY, priority 2007, published 2010)
